Among the data in PubChem BioAssay (NCI) are TGI values, retold here.

Structures are written as SMILES.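 Values below derive from 48-hour exposures of cells grown in 96-well plates, with endpoints linearly interpolated between the two concentrations bracketing the appropriate inhibition level. TGI is the concentration that stops growth completely.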 Some results are limits rather than exact numbers.

Assay in all cases: NCI tumour cell line growth inhibition, 48 h
Test [1] deals with XF 498 CNS.
The test system of test [2] is P388/ADR leukemia.
The test system of test [3] is P388 leukemia.
Test [4] concerns SN12K1 renal.
In test [5] the test system is HS 578T breast.
Test [6] concerns T-47D breast.
Test [7] has as its system PC-3 prostate.
Test [8] has as its system MDA-MB-435.
The subject of test [9] is DU-145 prostate.
Test [10] concerns BT-549 breast.

On to `CC(C)[C@](O)(C(=O)OCC1CC[N+]2([O-])CC[C@@H](O)C12)[C@H](C)O` (stereo partly drawn), for which the TGI in [1], in [2], in [3] and in test [4] was more than 375 µM each time.
Molecule `CCCCN1C(=O)NC(Cc2ccccc2)C1=O` (stereo not drawn) gave a TGI in test [1] of more than 100 µM.
Turning to `COc1ccc(N2C(=O)C3c4[nH]c5cccc(C)c5c4C4CCC(C(C)(C)C)CC4C3C2=O)cc1` (stereo not drawn), the TGI in [5], in [6], in test [7], in test [8] and in test [9] was more than 10 µM throughout.
Consider `Cc1ccc(-c2csc(=Nc3c(C)n(C)n(-c4ccccc4)c3=O)n2CCO)cc1`, for which the TGI in test [7], in test [10] and in [8] was more than 100 µM in each case.
